Several values for one entry are separate records, joined by “and”; a condition that tells them apart may be missing. Identical values can stand only once.
What was measured:
Assay type in all cases: cell-based, Brassica rapa
[1] = tested on: hairy roots of the clone 2M1; experiment: Test 3: GFP concentration in the culture medium after culture for 21 days (Petri dishes); conditions: 2,4-D 1 mg/l
Protocol: (§1) For the quantification of 6× His-EGFP, culture medium was diluted to 20× or 40× in a 50 mM tris buffer at pH 7.5. The fluorescence of the solution was measured using the BioRad VersaFluor™ fluorometer (excitation filter 485-495 nm; emission filter 505-515 nm). The calibration of the fluorometer was carried out using the commercially available recombinant 6× His-EGFP (BioVision) at a concentration of 10 mg/l.
Roots of the clone 2M1 were inoculated in 14 Petri dishes, each containing 5 ml of liquid B53 culture medium. They were cultured at 26° C. under stirring at 110 rpm for 17 days.
The medium was then changed in the Petri dishes as follows: • in seven Petri dishes, the medium was removed and replaced with fresh B53 culture medium with 2,4-D added at 1 mg/l (LRE 1 to 7) in order to induce the development of lateral root emergences in these dishes; • and in the other seven Petri dishes, the medium was removed and replaced with fresh B53 culture medium (Controls 1 to 7).
The roots were maintained at 26° C. under stirring at 110 rpm for 21 days.

[2] = tested on: hairy roots of the clone 2M1; experiment: Test 1: quantification by fluorometry of GFP secreted in the culture medium (Petri dishes)
Protocol: (§2) In order to modify the morphology of the hairy roots and prevent the development of the root hairs, roots of the clone 2M1 producing GFP were cultured in B53 liquid medium for two weeks. This culture medium was then removed and replaced with fresh B53 medium containing 2,4-dichlorophenoxyacetic acid (2,4-D), an auxin-type hormone, at 0.5 mg/l.
as §1
After culture of hairy roots of the clone 2M1 in B53 liquid medium for two weeks, this medium was replaced with fresh B53 medium containing 2,4-D auxin at 0.5 mg/l, in order to induce the development of lateral root emergences. The hairy roots of the clone 2M1 were thus cultured in Petri dishes containing 5 ml of B53 medium with 2,4-D added, at 23° C. and under stirring at 56 rpm.
The GFP secreted in the culture medium by the hairy roots having lateral root emergences, was quantified (10 repetitions) one and two weeks after the addition of 2,4-D auxin at 0.5 mg/l (Table 2).
Hairy roots of the clone 2M1 were cultured (9 repetitions) under the same conditions changing the B53 medium with fresh B53 medium but without the addition of auxin after culture for the first two weeks, in order to constitute control batches of hairy roots.

[3] = tested on: hairy roots of the clone 2M1; experiment: Induction of lateral root emergences on hairy roots, morphology; conditions: 2,4-D 0.5 mg/l in B53 medium, during the following 7 days
Protocol: as §2
In order to characterize these conical structures or “lateral root emergences” developing on the roots after hormonal induction, longitudinal sections (FIG. 3) and cross sections (FIG. 4) were produced in the control hairy roots after culture for 2 weeks in B53 medium and in hairy roots having lateral root emergences after culture for 2 weeks in B53 medium with 2,4-D auxin added.
The tissues were fixed in 4% p-formaldehyde overnight at 4° C., dehydrated in baths of ethanol of increasing concentrations, then enclosed in LR White resin. Sections with a thickness of 0.5 to 1 μm were produced using a Leica RM2265 microtome, stained with toluidine blue and observed using a Nikon Eclipse 90i microscope. The images were obtained using a Nikon Digital Sight DS-5Mc device, in visible light or in fluorescence to locate the GFP.

[4] = tested on: hairy roots of the clone LG5; experiment: Human gastric lipase activity in the liquid culture medium (4-methylumbelliferyl oleate substrate); conditions: 2,4-D 1 mg/l
Protocol: For this study, a subculture was carried out in six empty Erlenmeyer flasks, to which 1 g of biomass of the same mass of roots of the clone LG5 and 100 ml of liquid Gamborg B53 medium are added. The roots are cultured at 26° C. and under stirring at 110 rpm for two weeks.
In order to induce the development of lateral root emergences (LRE) in three Erlenmeyer flasks, this liquid medium is replaced with fresh B53 culture medium containing 2,4-dichlorophenoxyacetic acid (2,4-D) at 1 mg/l.
In the other three Erlenmeyer flasks having conventional hairy roots (HR), it is replaced with fresh B53 liquid culture medium, without 2,4-D.
After culture for two weeks at 26° C. with stirring at 110 rpm, a second change of medium was carried out in the flasks in an identical manner, in order to replace the culture medium with a fresh culture medium with +/−2,4-D at 1 mg/l.
The activity of the human gastric lipase is measured directly from the liquid culture media in the 6 flasks (14 days and 28 days after induction). The enzymatic activity is measured at 37° C. using 4-methylumbelliferyl oleate (0.1 mM) as substrate. The fluorescence of the 4-methylumbelliferone (MU), product of the enzyme reaction by the gastric lipase, is measured with a fluorometer (Excitation: 330 nm; Emission: 450 nm). This fluorescence is correlated to the human gastric lipase activity (FIG. 11).

[5] = tested on: hairy roots of the clone 2M1; experiment: Test 2: GFP secreted in the culture medium, Erlenmeyer flasks, two renewals of medium; conditions: 2,4-D 1 mg/l, first change of medium
Protocol: as §1
The clone 2M1 was inoculated at t0 into 5 Erlenmeyer flasks at a rate of 2 g of fresh roots in 100 ml of B53 medium. After culture at 26° C. with a stirrer at 110 rpm for 15 days, the roots have reached a mass of 24.4 g+/−3.90.
A first change of medium was then carried out in each of the flasks as follows; • in two flasks, the B53 medium was replaced with fresh B53 medium in order to carry out two repetitions for the control hairy roots; • in three flasks, the B53 medium was replaced with B53 medium with 2,4-D added at 1 mg/l in order to carry out three repetitions for inducing the development of lateral root emergences;
The GFP secreted in the culture medium was quantified 7 to 14 days after this first change of medium.
A second change of medium was then carried out in these same flasks, in an identical manner:
in the two flasks of control hairy roots. the B53 medium was replaced with fresh B53 medium; […]

[6] = lateral root emergences (LRE), 37° C., 3 flasks

Structure (SMILES): O=C(O)COc1ccc(Cl)cc1Cl [2,4-D, 2,4-dichlorophenoxyacetic acid]
- concentration of GFP in the medium after 21 days ([1]; 7 Petri dishes, roots with lateral root emergences): 597 mg/L
- concentration of GFP in the medium, times greater than control hairy roots ([1]; after 21 days): 4.3
- GFP in the culture medium versus control hairy roots (Student's test) ([2]; 2,4-D 0.5 mg/l versus medium without 2,4-D): significant difference
- GFP in the culture medium, 2 weeks after B53 + 2,4-D, average ([2]; average of 10 Petri dishes (n=10), 2,4-D 0.5 mg/l): 164 ± 10.3 mg/L and 164 mg/L
- GFP in the culture medium, 1 week after B53 + 2,4-D, average ([2]; average of 10 Petri dishes, 2,4-D 0.5 mg/l): 52 mg/L
- morphology of the hairy roots after hormonal induction [3]: Numerous conical structures called “lateral root emergences” (LRE) then developed on the hairy roots
- activity of the human gastric lipase, times greater than conventional hairy roots (HR) ([4]; LRE versus HR): approximately 3
- activity of the human gastric lipase in the culture medium at 14 days [4, 6]: 16 ± 0.6 pmol/min
- activity of the human gastric lipase in the culture medium at 28 days [4, 6]: 45 ± 0.3 pmol/min
- secretion of GFP versus control cultures after treatment for 14 days [5]: doubled

— patent US11034970B2, “Production of protein from hairy roots of a Brassicaceae plant utilizing rhizobium comprising rol genes” (UNIVERSITE DE PICARDIE JULES VERNE, priority 2015, dated 2021)
